Test results: PubChem BioAssay (NCI)
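Cells were grown in 96-well plates and exposed to each compound for 48 hours at five concentrations; endpoints were interpolated linearly between bracketing concentrations, or set to the highest concentration if not reached. At the TGI there is no net growth.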

Legend:
Experiment in all cases: growth of human tumour cells (NCI), 48 h
A498 renal = test system: A498 renal
EKVX NSCLC = test system: EKVX NSCLC
MDA-MB-435 = test system: MDA-MB-435
UACC-257 melanoma = test system: UACC-257 melanoma
PC-3 prostate = test system: PC-3 prostate
HCT-15 colon = test system: HCT-15 colon
HOP-62 NSCLC = test system: HOP-62 NSCLC
CAKI-1 renal = test system: CAKI-1 renal
M14 melanoma = test system: M14 melanoma
NCI/ADR-RES ovarian = test system: NCI/ADR-RES ovarian
OVCAR-4 ovarian = test system: OVCAR-4 ovarian
HT29 colon = test system: HT29 colon
SF-268 CNS = test system: SF-268 CNS
HCT-116 colon = test system: HCT-116 colon
MDA-MB-231 breast = test system: MDA-MB-231 breast
SW-620 colon = test system: SW-620 colon
ACHN renal = test system: ACHN renal
IGROV1 ovarian = test system: IGROV1 ovarian
SF-539 CNS = test system: SF-539 CNS

Structure (SMILES)	TGI (A498 renal) [µM]	TGI (EKVX NSCLC) [µM]	TGI (MDA-MB-435) [µM]	TGI (UACC-257 melanoma) [µM]	TGI (PC-3 prostate) [µM]	TGI (HCT-15 colon) [µM]	TGI (HOP-62 NSCLC) [µM]	TGI (CAKI-1 renal) [µM]	TGI (M14 melanoma) [µM]	TGI (NCI/ADR-RES ovarian) [µM]	TGI (OVCAR-4 ovarian) [µM]	TGI (HT29 colon) [µM]	TGI (SF-268 CNS) [µM]	TGI (HCT-116 colon) [µM]	TGI (MDA-MB-231 breast) [µM]	TGI (SW-620 colon) [µM]	TGI (ACHN renal) [µM]	TGI (IGROV1 ovarian) [µM]	TGI (SF-539 CNS) [µM]
Nc1ccc(Oc2ccc(C3(c4ccc(Oc5ccc(N)cc5)cc4)C4CC5CC(C4)CC3C5)cc2)cc1	9.36	> 81.4	35.6	> 100	> 52.9	35.7	32.3	> 83.4	17	> 100	> 74	24.7	> 95.3	13.7	37.6	> 66.5	> 62.9	> 44.5	> 66.2
NC(=O)c1cccc(N=c2oc3ccc(Br)cc3cc2-c2nc3ccccc3[nH]2)c1	35.8	32.6	39.4	43.4	29.2	32.1	33.8	34.3	32.3	35.9	47.5	34.7	43.6	33.3	25	47.7	32.2	33.6	14.4
Cn1c(=O)c2c(nc3sc4c(n32)C(=O)c2c(O)ccc(O)c2C4=O)n(C)c1=O	57.4	33.8	15.5	28.5	26.7	4.72	30	18.6	6.48	17.1	2.92	4.34	24.5	4.68	5.26	1.78	8.33	25.4	15.6
C=C/C(C)=C\CC1[C@](C)(O)CC[C@H]2C(C)(C)C(O)CC[C@]12C (stereo partly specified)	> 100	> 100	> 100	> 100	> 100	> 100	–	> 100	> 100	> 100	> 100	> 100	> 100	> 100	> 100	> 100	> 100	> 100	> 100
O=C(O)c1cc2c(cc1CC(Cc1ccc3c(c1)CCCC3)C(=O)O)CCCC2 (stereo unspecified)	> 100	> 100	> 100	> 100	> 100	> 100	> 100	> 100	> 100	> 100	0.758	> 100	> 100	> 100	> 100	> 100	> 100	> 100	> 100
COc1ccc(C2=C(N)c3c(Cl)cccc3C2=O)cc1	> 100	> 100	> 100	> 100	> 100	> 100	> 100	> 100	> 100	> 100	> 100	> 100	> 100	> 100	> 100	> 100	> 100	> 100	> 100
CN(C)CCNC(=O)c1cccc2c(NC(CS)C(=O)O)c3ccccc3[n+](C)c12 (stereo unspecified)	> 100	> 100	> 100	> 100	> 100	> 100	> 100	–	> 100	93.2	> 100	> 100	80.8	> 100	> 100	> 100	> 100	> 100	> 100
N#Cc1cc([N+](=O)[O-])ccc1NC(=O)/C(=N\NC(=O)c1ccncc1)C(c1cnc2ccc([N+](=O)[O-])cc2n1)[N+](=O)[O-] (stereo unspecified)	17.7	25.1	2.59	3.05	21.4	5.22	6.8	17.9	3.23	37	5.76	41.8	11.6	7.33	5.36	5.5	9.14	14.2	3.63
O=C(OCc1ccc([N+](=O)[O-])cc1)N1c2ccccc2[C@@]23O[C@]24CCC[C@H]3C#C/C=C\C#C[C@H]14	> 100	> 100	> 100	> 100	> 100	> 100	–	> 100	> 100	> 100	> 100	> 100	> 100	> 100	> 100	> 100	> 100	> 100	> 100
CC1CC/C(=C\c2ccc(N(C)C)cc2)C2=C1C(c1ccc(N(C)C)cc1)NC(=S)N2 (stereo unspecified)	> 100	> 100	> 100	> 100	> 100	> 100	–	> 100	> 100	> 100	–	> 100	> 100	> 100	> 100	> 100	> 100	> 100	> 100
Cc1cc(C)c(O)c(CN2CCN(C(C)C)CCN(C(C)C)CC2)c1	> 100	> 100	64.4	35.5	> 100	> 100	–	> 100	26.2	> 100	> 100	–	> 100	85.2	> 100	> 100	> 100	18.1	30.8
CCOC(=O)C1(N)CCc2[nH][nH]c(=O)c2C1 (stereo unspecified)	> 100	> 100	> 100	> 100	> 100	> 100	> 100	> 100	> 100	> 100	> 100	> 100	–	> 100	> 100	> 100	> 100	> 100	> 100
CCOC(=O)c1cc2c3c(c(C(C)=O)c(O)c2[nH]1)N(C(C)=O)CC3	> 100	> 100	> 100	> 100	> 100	> 100	> 100	> 100	> 100	> 100	–	> 100	> 100	> 100	> 100	> 100	> 100	> 100	> 100
CN(C)CCCSc1nc2c(c(=N)n1-c1ccccc1)c(=S)n(-c1ccccc1)c(=S)n2-c1ccccc1	4.89	3.58	3.09	3.32	3.14	3.32	3.4	3.16	3.76	7.38	3.42	–	3.33	3.46	3.03	3.65	3.22	3.14	6.95
O=c1/c(=C/c2ccc([N+](=O)[O-])o2)sc2n1[C@@H](c1ccc(Cl)cc1)C=C(c1cc(F)c(Cl)cc1Cl)N=2	> 100	–	36.2	30.6	32.7	26.7	30.6	> 100	29.1	> 100	30.8	23.2	33.4	18.3	18.5	> 100	32.6	31.7	69
O=[N+]([O-])c1ccc(Oc2c(Cl)cc(S(=O)(=O)/N=C(\NO)Nc3ccc(Cl)cc3)cc2Cl)c(Cl)c1	25.9	28	31.3	30.8	26.7	32.1	30.3	28.3	30.1	51.4	25.9	30.5	29.6	26.2	36.7	80.3	28.2	–	36.7
CC(=O)OCC1OC(n2c3c(cc(C#N)c2=S)CCC3)C(OC(C)=O)C(OC(C)=O)C1OC(C)=O (stereo unspecified)	> 100	–	> 100	> 100	> 100	> 100	> 100	> 100	> 100	> 100	> 100	> 100	> 100	> 100	> 100	> 100	> 100	> 100	> 100
C=C(C)[C@@]1(O)CCCC[C@@H]1CC(Sc1ccccc1)Sc1ccccc1	68.4	28.7	33	48.7	34.8	33.3	35	28.8	39.3	34	29.1	42.5	31.1	30.2	38.7	–	> 100	33.6	–
O=c1cc(CSc2c(-c3ccccc3)c(=O)n(-c3ccccc3)c(=S)n2-c2ccccc2)[nH]c(=O)[nH]1	> 100	> 100	> 100	> 100	> 100	> 100	> 100	> 100	> 100	> 100	–	> 100	> 100	> 100	> 100	> 100	> 100	> 100	> 100
CC1=NNC(=O)C1C1CC(c2c[nH]c3ccccc23)=NN(C(N)=O)C1=O (stereo unspecified)	> 100	> 100	> 100	> 100	> 100	> 100	> 100	> 100	> 100	> 100	–	> 100	> 100	> 100	> 100	> 100	> 100	> 100	> 100
CCOC(=O)C1C(C)C2(C#N)C(=N)OC1(C)C2(C#N)C#N (stereo unspecified)	> 100	> 100	> 100	> 100	> 100	> 100	–	> 100	> 100	> 100	–	> 100	> 100	> 100	> 100	> 100	> 100	> 100	> 100
O=C(O)c1nc2ccc(C(F)(F)F)cc2nc1NCc1ccc(Cl)c(Cl)c1	34.6	30.4	30	54.3	29.4	36.5	32.2	36.9	31.6	42.7	51.4	28.5	–	29.7	34.5	47.2	30.5	30.7	36.6
Clc1ccc(C(Cc2cccc(Cl)c2)c2c(Cl)nc(N3CCNCC3)nc2Cl)cc1 (stereo unspecified)	28.5	> 100	30.3	37.6	30.6	26.4	28.9	24.4	26.2	36.2	31.3	> 100	–	25.9	26.4	30.1	28.8	> 100	35.2
C=CCN1C[C@H](C)N([C@@H](c2ccc(C(=O)N3CCCCC3)cc2)c2cccc(OC)c2)C[C@H]1C	> 100	> 100	> 100	50	72.2	> 100	> 100	> 100	34.9	> 100	> 100	> 100	> 100	> 100	> 100	–	> 100	> 100	67.7
O=c1[nH]nc(Cc2ccccc2)n1CCCl	> 100	> 100	> 100	–	> 100	> 100	> 100	> 100	> 100	> 100	> 100	> 100	> 100	> 100	> 100	> 100	–	> 100	> 100
